The results in this text go back to US12168677B2, “Proteins for the treatment of epithelial barrier function disorders” (Genevive, Inc., priority 2017, dated 2024).

On the set-up of data set [1]: species or system mice. The settings on record: mouse, in vivo, ip.
Data set [2] has as its system DSS treated mice. The experiment in a line: DSS model: colon length. The settings on record: 50 nmoles/kg i.p. b.i.d.; 2.5% DSS 6 days. Format: in vivo, C57BL/6 mice. Here is the method: Eight-week old C57BL/6 mice were housed 5 animals were cage and given food and water ad libitum for 7 days. Following the 7-day acclimation period, treatments were initiated concurrently with addition of 2.5% DSS to the drinking water. […] The mice were treated with 2.5% dextran sodium sulfate (DSS) in their drinking water for 6 days. Treatments were continued with SG-15 or […]-GLP2 twice a day (b.i.d.) in the morning and evening (every 8 and 16 hr) with i.p. injections at 50 nmoles/kg. Fresh 2.5% DSS drinking water was prepared every 2 days. Colon length was measured in mice included in the DSS model described in Example 1E. […] The graph in FIG. 8 represents data pooled from the 2 individual experiments (n=20).

For data set [3], the system named is DSS treated mice. The experiment in a line: DSS model: colon weight to length ratio. In kind it is in vivo, C57BL/6 mice. The note with it: Gly2-GLP2 i.p. b.i.d.; 2.5% DSS 6 days. Here is the method: Eight-week old C57BL/6 mice were housed 5 animals were cage and given food and water ad libitum for 7 days. Following the 7-day acclimation period, treatments were initiated concurrently with addition of 2.5% DSS to the drinking water. […] The mice were treated with 2.5% dextran sodium sulfate (DSS) in their drinking water for 6 days. Treatments were continued with SG-15 or […]-GLP2 twice a day (b.i.d.) in the morning and evening (every 8 and 16 hr) with i.p. injections at 50 nmoles/kg. Fresh 2.5% DSS drinking water was prepared every 2 days. Colon length and weight were measured in mice included in the DSS model study described in Example 1E. […] Accordingly, the ratio of tissue weight to length can be used as a readout of DSS induced tissue damage. SG-15 administration to DSS treated mice (Example 1E) reduced the colon weight to length ratio elicited by DSS (DSS=3.9 mg/mm, DSS+SG-15=3.5 mg/mm; p=0.13). […] However, no difference was observed between treated with SG-15 as compared to treatment with […]GLP2. The graph in FIG. 9 represents data pooled from the 2 individual experiments (n=20).

For data set [4], the system named is HCT8 enterocytes and HT29-MTX goblet cells. The experiment in a line: Epithelial cell wound healing (Oris Cell Migration assay). Format: cell-based, human. The settings on record: SG protein 1 μg/ml, EGF 30 ng/ml, staurosporine 100 nM; 48 hours. From the text: HCT8 enterocytes and HT29-MTX goblet cells were used in wound healing studies. The 96 well Oris Cell Migration assay containing plugs preventing cell attachment in the center of each well was used according to the manufacturer's instructions (Platypus Technologies, Madison, WI). The migration assay plates were warmed to room temperature prior to use and plugs were removed from 100% confluence wells prior to cell addition. The HCT8 enterocyte and HT29-MTX goblet cell lines were used at a 9:1 ratio with a total of 5×10^4 total cells added per well (4.5×10^4 HCT8 cells and 0.5×10^4 HT29-MTX cells). […] Plugs were then removed from all control and sample wells. Control wells included cells treated with the diluent vehicle as the blank, 30 ng/ml epidermal growth factor (EGF) as the positive control, and 100 nM staurosporine as the negative control, all diluted in cRPMI. Sample wells contained SG-15 protein at a concentration of 1 μg/ml diluted in cRPMI. 100% and 0% wells were cultured in cRPMI. […] Prior to staining for viable cells, plugs were removed from the 0% wells. Treatment media was removed and cells were washed in PBS containing 0.9 mM CaCl2) and 0.5 mM MgCl2. […] Samples were normalized between 100% and 0% samples and values expressed as a percent growth.

Data set [5] shares this test system. The experiment in a line: Co-culture trans-epithelial electrical resistance (TEER) assay with heat killed E. coli challenge. In kind it is cell-based, human. The note with it: staurosporine 100 nM, negative control. On the procedure:
Assays were performed as described below in trans-well plates where co-cultures of multiple cell types were performed utilizing a permeable membrane to separate cells. In the apical (top) chamber, human colonic epithelial cells, consisting of a mixture of enterocytes and goblet cells, were cultured until cells obtained tight junction formation and barrier function capacity as assessed by measurement of trans-epithelial electrical resistance (TEER). In the basolateral chamber, monocytes were cultured separately. Epithelial cells were primed with inflammatory cytokines. The assays measured the effect of a therapeutic protein, i.e., SG-15, on epithelial barrier function, wound healing, and production of cytokines. Cell culture. The HCT8 human enterocyte cell line (ATCC Cat. No. CCL-244) was maintained in RPMI-1640 medium supplemented with 10% fetal bovine serum, 100 IU/ml penicillin, 100 μg/ml streptomycin, 10 μg/ml gentamicin and 0.25 μg/ml amphotericin (cRPMI). […] Epithelial cells were trypsinized from culture flasks and viable cells determined by trypan blue counting. […] Trans-epithelial electrical resistance (TEER) readings were measured after the IFN-γ treatment and were used as the pre-treatment TEER values. […]

“Also recorded” adds a separate entry of the source.

Regarding “fluorescently labeled bovine serum albumin: tracer protein for tracking studies following intraperitoneal injection”, the “Time at which protein reached the colon after i.p. delivery” value in data set [1] amounted to 6 h. As to “Gly2-GLP2: a stable analog of glucagon-like peptide 2 (GLP2), positive control in DSS model”, in data set [2], the “Colon length / colon shortening elicited by DSS treatment” value is recorded as “significant improvement in colon length” and the “Colon length, Gly2-GLP2 compared with SG protein” value is recorded as “significant improvement over SG-16; also recorded: significant improvement over SG-17; also recorded: significant improvement over SG-18”. For the same compound, the “Colon weight to length ratio, effect of positive control in DSS mice” value in data set [3] is recorded as “significant reduction in colon weight to length ratio”. Take “epidermal growth factor (NSDSECPLSHDGYCLHDGVCMYIEALDKYACNCVVGYIGERCQYRDLKWWELR; Epidermal growth factor; UniProt P01133 971-1023, looked up) [EGF, positive control in wound healing assay, reference compound]”: the “Wound healing, percent growth” value in data set [4] is “increasing proliferation”. In the case of `CN[C@@H]1C[C@H]2O[C@@](C)([C@@H]1OC)n1c3ccccc3c3c4c(c5c6ccccc6n2c5c31)C(=O)NC4` [staurosporine, reference compound], the “Effect of control compound on TEER” value in data set [5] is “drastic decrease in TEER”. Also, the “Wound healing, percent growth” value in data set [4] is reported as “suppressing cell proliferation”.
